The values that follow come from PMC7200626, “Nek7 conformational flexibility and inhibitor binding probed through protein engineering of the R-spine” (Biochemical Journal, 2020).

In one experiment the target is T1, Nek7^SRS (Homo sapiens, UniProt Q8TDX7, L180F/L86H/Y97F).
T1 construct: Nek7 strong R-spine mutant, C-terminal non-cleavable His6-tag
Put plainly: X-ray co-crystal structure, […] Å; IC50 from LabChip EZ Reader kinase assay. Format: biochemical.

The target in a further experiment is T2, Nek7^WT (Homo sapiens, UniProt Q8TDX7).
T2 construct: wild-type Nek7, C-terminal non-cleavable His6-tag
T2 sequence (Q8TDX7 whole entry): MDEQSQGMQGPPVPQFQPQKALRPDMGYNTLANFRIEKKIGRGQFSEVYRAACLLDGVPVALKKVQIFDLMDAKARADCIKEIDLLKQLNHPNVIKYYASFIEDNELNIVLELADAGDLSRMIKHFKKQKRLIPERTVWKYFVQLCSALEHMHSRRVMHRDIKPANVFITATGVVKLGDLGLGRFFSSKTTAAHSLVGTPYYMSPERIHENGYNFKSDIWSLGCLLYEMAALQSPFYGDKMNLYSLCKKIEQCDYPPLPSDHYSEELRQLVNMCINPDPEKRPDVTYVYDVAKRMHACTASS
The experiment is described as above. Format: biochemical.

The term IC50 denotes the concentration at which inhibition is half-maximal.

T1 sequence (Q8TDX7 whole entry L86H/Y97F/L180F): as the sequence (Q8TDX7 whole entry) above, with L86H, Y97F, L180F counted along it

As for `CN(C)CCCNS(=O)(=O)c1cccc(Nc2nc(OCC3CCCCC3)c3nc[nH]c3n2)c1` [compound 51], the half-inhibitory concentration (IC50) turned out to be 40.1 µM at Nek7^SRS and 79 µM at Nek7^WT.
